# Reference: US4008267A, “3,3'-Di(sulfonyloxy-group-containing)substituted benzidine derivatives” (AB Kabi, priority 1974, dated 1977)
# Experiments:
# [1] = Absorption wave length of the oxidized chromogen; assay type: physicochemical
# [2] = background, cited from earlier work
# [3] = background, cited from earlier work; remark: listed apart in the source
# [4] = Solubility of the chromogens in water / at pH 7, reduced and oxidized state; details: for solubility: pH 7, water
# [5] = Light stability: extinction decrease after irradiation of the oxidized chromogen; assay type: physicochemical
# Protocol: In connection with this composition portion of the invention, laboratory tests were conducted by a standard method for evaluating different chromogens.
# [6] = Color stability at extinction maximum; assay type: physicochemical; details: 0.2 mM chromogen; 4 hours the longest period observed
# [7] = Color development of chromogen-reactive-indicator composition with glucose stock solutions (glucose oxidase/peroxidase); details: 0.2 mM chromogen in reagent composition
# Protocol: Glucose was used as the control or test substance to be tested for in these tests.
# ______________________________________
# Chromogen used 0.2 mM (i.e. millimolar),
# glucose oxidase 3000 units,
# Stock or test solutions were prepared containing glucose in concentrations of 25, 50, 100, 200, 300, and 400 mg. per 100 ml.
# Before the final determination, this thus diluted solution is diluted further 1 part to 11 with the just described chromogen reagent solution. Thereafter the development of color is measured at 450 mm.
# When this particular dilution pattern is applied to the foregoing stock or test stem solutions, finally diluted solutions with the following respective glucose contents are obtained: 2.2, 4.3, 8.6, 13.0, and 17.3 mg. per liter.
# [8] = Stability of isolated product in air; assay type: physicochemical; details: greyish crystal powder
# Protocol: d. 10 gm. of this 8,8'-bis(2-oxo-1,2,3,4,5,6-hexahydro-1-benzazocine) are refluxed for 12 hours with 200 ml. of concentrated hydrochloric acid. The solution is evaporated to a small volume, diluted with water, following which the pH is adjusted to 5 to 6 by adding concentrated sodium acetate solution.
# [9] = Solubility at pH 7, oxidized (colored), pH 7, oxidized state
# [10] = Solubility at pH 7, reduced (uncolored), pH 7, reduced state
# [11] = 450 nm (o-tolidine 430 nm), pH value 6.5
"Color stability at extinction maximum, optional reading time [6]",Solubility in water (in words) [4],Precipitation of chromogen [7],Discoloration in the air [8],Compound,Wave length range in nm ([1]; pH value 6.5),"Decline of extinction when exposed to light ([2]; oxidized, exposed to light)",Sensitivity of color to light ([2]; oxidized),Light absorption wave length in oxidized state [3],"solubility [4, 9]","solubility [4, 10]","Extinction decrease % after irradiation 5 min. under 10 Watt tungsten lamp [5, 11]",Wave length range in nm ([1]; pH value 4.5),Sensitivity of color to pH and temperature ([2]; temporarily appearing color at about 630 nm),Absorption of temporarily appearing color ([3]; temporarily appearing color),"Extinction decrease % after irradiation 5 min. under 10 Watt tungsten lamp ([5]; 630 nm, pH value 4.5)"
–,–,–,–,COc1cc(-c2ccc(N)c(OC)c2)ccc1N [o-dianisidine],450 nm,up to 25 per cent,sensitive to light,about 450 nm,10 µg/mL,110 µg/mL,26%,–,–,–,–
up to 4 hours,very good,no precipitation of chromogen occurred,–,"Cl.Cl.Nc1ccc(-c2ccc(N)c(OCCCC(=O)O)c2)cc1OCCCC(=O)O [Example 1(d), Gamma, gamma'-(4,4'-diamino-3,3'-biphenyldioxy)dibutyric acid dihydrochloride]",450 nm,–,–,–,700 µg/mL,70000 µg/mL,2%,–,–,–,–
–,–,–,readily discolors in the air,"Nc1ccc(-c2ccc(N)c(CCCCC(=O)O)c2)cc1CCCCC(=O)O [Example 6, Delta,delta'-(4,4'-diamino-3,3'-biphenyl)divaleric acid]",–,–,–,–,–,–,–,–,–,–,–
up to 4 hours,quite good,no precipitation of it occurs,–,"Nc1ccc(-c2ccc(N)c(OCCCS(=O)(=O)O)c2)cc1OCCCS(=O)(=O)O [Example 3(b), Gamma,gamma'-(4,4'-diamino-3,3'-biphenyldioxy)dipropane sulfonic acid]",450 nm,–,–,–,120 µg/mL,12000 µg/mL,2%,–,–,–,–
–,–,–,–,Cc1cc(-c2ccc(N)c(C)c2)ccc1N [o-tolidine],430 nm,–,–,about 450 nm,7 µg/mL,130 µg/mL,1%,630 nm,very sensitive to variations in pH and temperature,about 630 nm,unstable
